Measurements reported in patent publication US6753337B2, “Alkynyl containing hydroxamic acid compounds as matrix metalloproteinase/tace inhibitors” (Wyeth Holdings Corporation, priority 1999, dated 2004).
Like-named read-outs stand apart in the source and are kept apart here.

Columns and labels:
[1] = biological target: T1, MMP-1 (Homo sapiens, UniProt P03956); experiment: MMP-1 inhibition (thiopeptide or fluorescent peptide substrate); type: biochemical; conditions: read-out: MMP1 IC50
T1 sequence (P03956 100-469): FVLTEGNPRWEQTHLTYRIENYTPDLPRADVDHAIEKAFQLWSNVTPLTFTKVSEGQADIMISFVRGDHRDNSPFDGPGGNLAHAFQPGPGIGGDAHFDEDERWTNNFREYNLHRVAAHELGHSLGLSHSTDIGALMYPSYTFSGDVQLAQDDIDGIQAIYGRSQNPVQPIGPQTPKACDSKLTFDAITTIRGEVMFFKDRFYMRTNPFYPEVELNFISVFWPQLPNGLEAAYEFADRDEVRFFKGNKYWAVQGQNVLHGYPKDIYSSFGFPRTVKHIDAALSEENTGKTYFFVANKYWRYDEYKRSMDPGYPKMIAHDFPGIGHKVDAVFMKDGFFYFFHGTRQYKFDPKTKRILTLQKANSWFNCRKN
Experimental: (§1) These standard pharmacological test procedures are based on the cleavage of a thiopeptide substrates such as Ac-Pro-Leu-Gly(2-mercapto-4-methyl-pentanoyl)-Leu-Gly-OEt by the matrix metalloproteinases MMP-1, MMP-13 (collagenases) or MMP-9 (gelatinase), which results in the release of a substrate product that reacts colorimetrically with DTNB (5,5′-dithiobis(2-nitro-benzoic acid)). The enzyme activity is measured by the rate of the color increase. The thiopeptide substrate is made up fresh as a 20 mM stock in 100% DMSO and the DTNB is dissolved in 100% DMSO as a 100 mM stock and stored in the dark at room temperature. Both the substrate and DTNB are diluted together to 1 mM with substrate buffer (50 mM HEPES pH 7.5, 5 mM CaCl2) before use. The stock of enzyme is diluted with buffer (50 mM HEPES, pH 7.5, 5 mM CaCl2, 0.02% Brij) to the desired final concentration. The buffer, enzyme, vehicle or inhibitor, and DTNB/substrate are added in this order to a 96 well plate (total reaction volume of 200 μl) and the increase in color is monitored spectrophotometrically for 5 minutes at 405 nm on a plate reader and the increase in color over time is plotted as a linear line.
(§2) Alternatively, a fluorescent peptide substrate is used. In this test procedure, the peptide substrate contains a fluorescent group and a quenching group. Upon cleavage of the substrate by an MMP, the fluorescence that is generated is quantitated on the fluorescence plate reader. The assay is run in HCBC assay buffer (50 mM HEPES, pH 7.0, 5 mM Ca^+2, 0.02% Brij, 0.5% Cysteine), with human recombinant MMP-1, MMP-9, or MMP-13. The substrate is dissolved in methanol and stored frozen in 1 mM aliquots. For the assay, substrate and enzymes are diluted in HCBC buffer to the desired concentrations. Compounds are added to the 96 well plate containing enzyme and the reaction is started by the addition of substrate. The reaction is read (excitation 340 nm, emission 444 nm) for 10 min. and the increase in fluorescence over time is plotted as a linear line.
(§3) For either the thiopeptide or fluorescent peptide test procedures, the slope of the line is calculated and represents the reaction rate. The linearity of the reaction rate is confirmed (r^2>0.85). The mean (x±sem) of the control rate is calculated and compared for statistical significance (p<0.05) with drug-treated rates using Dunnett's multiple comparison test. Dose-response relationships can be generated using multiple doses of drug and IC50 values with 95% CI are estimated using linear regression.

[2] = test system: THP-1 cells; experiment: Human monocytic THP-1 cell differentiation assay for soluble proteins (THP-1 soluble protein assay); type: cell-based; conditions: LPS-stimulated THP-1 cells, soluble protein not given
From the text: Mitogenic stimulation of THP-1 cells cause differentiation into macrophage like cells with concomitant secretion of tumor necrosis factor (TNF-α) and TNF receptor (TNF-R p75/80 and TNF-R p55160) and Interleukin-8 (IL-8), among other proteins. In addition, non-stimulated THP-1 cells shed both the p75/80 and the p55/60 receptors over time. The release of membrane bound TNF-α and possibly TNF-R p75/80 and TNF-R p55/60, but not IL-8, is mediated by an enzyme called TNF-α converting enzyme or TACE.
THP-1 cells (from ATCC) are a human monocytic cell line which were obtained from the peripheral blood of a person with acute monocytic leukemia. They can be grown in culture and differentiated into macrophage like cells by stimulation with mitogens.
Each vial of cells are cultured for about two weeks prior to being used for an assay and then are used for only 4 to 6 weeks to screen compounds.
Cell exposure to DMSO was limited to 0.1% final concentration. […] Compounds can be evaluated for their effect on basal (non-stimulated) shedding of the receptors by replacing the LPS with […] of THP-1 media.
Plates are placed into an incubator set at 5% CO2 and at 37° C. After 4 hours of incubation, […] of tissue culture supernatant (TCS) is removed for use in an TNF-α ELISA. Following 24 hours of incubation, […] of TCS is removed and used for analysis in TNF-R p75/80, TNF-R p55160 and IL-8 ELISAs.
In addition, at the 24 hours timepoint, and the cells for each treatment group are collected by resuspension in 500 μl/well of THP-1 media and transferred into a FACS tube. […] The samples are run on a Becton Dickinson FaxCaliber FLOW cytometry machine and the amount of dye taken up by each cell is measured in the high red wavelength (FL3). Only cells with compromised membranes (dead or dying) can take up PI. The percent of live cells is calculated by the number of cells not stained with PI, divided by the total number of cells in the sample. The viability values calculated for the drug treated groups were compared to the viability value calculated for the vehicle treated mitogen stimulated group (“vehicle positive control”) to determine the “percent change from control”. This “percent change from control” value is an indicator of drug toxicity.
The quantity of soluble TNF-α, TNF-R p75/80 and TNF-R p55160 and IL-8 in the TCS of the THP-1 cell cultures are obtained with commercially available ELISAs from R&D Systems, by extrapolation from a standard curve generated with kit standards. The number of cells that either take up or exclude PI are measured by the FLOW cytometry machine and visualized by histograms using commercially available Cytologic software for each treatment group including all controls.
Biological variability in the magnitude of the response of THP-1 cell cultures requires that experiments be compared on the basis of percent change from “vehicle positive control” for each drug concentration. Percent change in each soluble protein evaluated from the “vehicle positive control” was calculated for each compound concentration with the following formula: [formula]
For the soluble protein (TNF-α, p75/80, p55/60, IL-8) studies under stimulated conditions, the mean pg/ml of duplicate wells were determined and the results expressed as percent change from “vehicle positive control”. For the soluble protein (p75/80 and p55/60 receptors) studies under non-stimulated conditions, the mean pg/ml of duplicate wells were determined and the results expressed as percent change from “vehicle positive control” utilizing the following formula: [formula]
IC50 values for each compound are calculated by non-linear regression analysis using customized software utilizing the JUMP statistical package.
For the cell viability studies, the viabilities (PI exclusion) of pooled duplicate wells were determined and the results expressed as % change from “vehicle positive control”.

[3] = biological target: MMP-9 (Homo sapiens, UniProt P14780); experiment: MMP-9 inhibition (thiopeptide or fluorescent peptide substrate); type: biochemical; conditions: read-out: MMP9 IC50
Experimental: as §1, §2, §3

Chain of MMP-9 (P14780 94-707): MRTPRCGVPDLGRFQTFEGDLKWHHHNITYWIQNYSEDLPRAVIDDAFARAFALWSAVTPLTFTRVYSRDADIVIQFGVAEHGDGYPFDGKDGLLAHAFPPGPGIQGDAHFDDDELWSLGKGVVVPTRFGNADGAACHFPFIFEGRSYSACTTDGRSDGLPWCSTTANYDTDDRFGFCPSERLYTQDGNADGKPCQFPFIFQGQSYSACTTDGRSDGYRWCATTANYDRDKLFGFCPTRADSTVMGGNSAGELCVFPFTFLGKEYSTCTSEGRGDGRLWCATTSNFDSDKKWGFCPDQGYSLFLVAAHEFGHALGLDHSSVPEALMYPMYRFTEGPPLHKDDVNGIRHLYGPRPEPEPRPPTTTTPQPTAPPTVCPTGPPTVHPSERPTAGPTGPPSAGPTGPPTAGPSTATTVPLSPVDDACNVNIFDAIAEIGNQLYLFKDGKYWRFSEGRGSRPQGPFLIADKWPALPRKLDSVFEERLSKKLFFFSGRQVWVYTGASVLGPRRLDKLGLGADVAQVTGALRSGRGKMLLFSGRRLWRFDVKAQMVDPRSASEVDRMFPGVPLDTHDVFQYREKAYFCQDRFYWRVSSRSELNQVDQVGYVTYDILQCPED

| SMILES | IC50 [1] | inhibition at 3 µM [2] | IC50 [3] | IC50 ([1]; cells that print nM) |
| --- | --- | --- | --- | --- |
| CC#CCOc1ccc(S(=O)(=O)C2(C(=O)NO)CCN(Cc3ccc(Br)cc3)CC2)cc1 [Example 1, 1-(4-Bromo-benzyl)-4-(4-but-2-ynyxoy-benzenesulfonyl)-piperdine-4-carboxylic acid hydroxyamide] | 3300 nM | 46% | 385 nM |  |
| CC#CCOc1ccc(S(=O)(=O)C2(C(=O)NO)CCN(Cc3ccc(OC)cc3)CC2)cc1 [Example 2, 4-(4-But-2-ynyloxy-benzenesulfonyl)-1-(4-methoxy-benzyl)-piperdine-4-carboxylic acid hydroxyamide] | 2570 nM | 68% | 164 nM |  |
| CC#CCOc1ccc(S(=O)(=O)C2(C(=O)NO)CCN(Cc3ccc(Cl)cc3)CC2)cc1 [Example 3, 4-(4-But-2-ynyloxy-benzenesulfonyl)-1-(4-chloro-benzyl)-piperdine-4-carboxylic acid hydroxyamide] | 9000 nM | 34% | 280 nM |  |
| CC#CCOc1ccc(S(=O)(=O)C2(C(=O)NO)CCN(Cc3ccccc3)CC2)cc1 [Example 4, 1-Benzyl-4-(4-but-2-ynyloxy-benzenesulfonyl)-piperdine-4-carboxylic acid hydroxyamide] | 2600 nM | 25% | 148 nM |  |
| CCC#CCOc1ccc(S(=O)(=O)C2(C(=O)NO)CCN(Cc3ccc(Br)cc3)CC2)cc1 [Example 5, 1-(4-Bromo-benzyl)-4-(4-pent-2-ynyloxy-benzenesulfonyl)-piperdine-4-carboxylic acid hydroxyamide] | 300 nM | 30% | 400 nM |  |
| CC#CCOc1ccc(S(=O)(=O)C2(C(=O)NO)CCN(Cc3ccc(F)cc3)CC2)cc1 [Example 7, 4-(4-But-2-ynyloxy-benzenesulfonyl)-1-(4-fluoro-benzyl)-piperidine-4-carboxylic acid hydroxyamide] | 2500 nM | 21% | 225 nM |  |
| CC#CCOc1ccc(S(=O)(=O)C2(C(=O)NO)CCN(Cc3ccc(C#N)cc3)CC2)cc1 [Example 8, 4-(4-But-2-ynyloxy-benzenesulfonyl)-1-(4-cyano-benzyl)-piperidine-4-carboxylic acid hydroxyamide] | 4700 nM | 21% | 218 nM |  |
| CC#CCOc1ccc(S(=O)(=O)C2(C(=O)NO)CCN(Cc3ccc(C)cc3)CC2)cc1 [Example 9, 4-(4-But-2-ynyloxy-benzenesulfonyl)-1-(4-methyl-benzyl)-piperidine-4-carboxylic acid hydroxamide] | 2100 nM | 12% | 96.2 nM |  |
| C#CCOc1ccc(S(=O)(=O)C2(C(=O)NO)CCN(Cc3ccc(Br)cc3)CC2)cc1 [Example 11, 1-(4-Bromo-benzyl)-4-(4-prop-2-ynyloxy-benzenesulfonyl)-piperdine-4-carboxylic acid hydroxyamide] | 143 nM | 7% | 5.8 nM |  |
| O=C(NO)C1(S(=O)(=O)c2ccc(OCC#CCN3CCCCC3)cc2)CCN(Cc2ccc(Br)cc2)CC1 [Example 12, 1-(4-bromo-benzyl)-4-[4-(4-piperidin-1-yl-but-2-ynyloxy)-benzenesulfonyl]-piperidine-4-carboxylic acid hydroxyamide] | 15000 nM | 58% | 1000 nM |  |
| CC#CCOc1ccc(S(=O)(=O)C2(C(=O)NO)CCOCC2)cc1 [Example 20, 4-{[4-(2-butynyloxy)phenyl]sulfonyl}-N-hydroxytetrahydro-2H-pyran-4-carboxamide] |  | 47% | 568 nM | 2640 nM |
| CC#CCOc1cccc(S(=O)(=O)C2(C(=O)NO)CCN(Cc3ccccc3)CC2)c1 [Example 21, 1-benzyl-4-{[3-(2-butynyloxy)phenyl]sulfonyl}-N-hydroxy-4-piperdine carboxamide] | > 10000 nM | 6% | 3500 nM |  |
| CC#CCOc1ccc(S(=O)(=O)C2(C(=O)NO)CCN(C(C)C)CC2)cc1 [Example 22, 4-{[4-(2-butynyloxy)phenyl]sulfonyl}-N-hydroxy-1-isopropyl-4-piperidine carboxamide] | > 10000 nM | 5% | 1810 nM |  |
| CC#CCOc1ccc(S(=O)(=O)C2(C(=O)NO)CCN(Cc3cccnc3)CC2)cc1 [Example 23, 4-{[4-(2-butynyloxy)phenyl]sulfonyl}-N-hydroxy-1-(3-pyridinylmethyl)-4-piperidine carboxamide] |  | 62% | 160 nM | 3210 nM |
| CC#CCOc1ccc(S(=O)(=O)C2(C(=O)NO)CCCN(CC)C2)cc1 (stereo not drawn) [Example 24, 3-{[4-(2-Butynyloxy)phenyl]sulfonyl}-1-ethyl-N-hydroxy-3-piperidinecarboxamide] |  | 41% | 2080 nM | 5670 nM |
| CC#CCOc1ccc(S(=O)(=O)C2(C(=O)NO)CCCN(Cc3ccc(Cl)cc3)C2)cc1 (stereo not drawn) [Example 25, 3-{[4-(2-butynyloxy)phenyl]sulfonyl}-1-(4-chlorobenzyl)-N-hydroxy-3-piperidinecarboxamide] | > 10000 nM | 3% | 2740 nM |  |
